Data as given in the NIST ThermoML archive (doi:10.1021/je201349k).
Numbers after ± are expanded uncertainties. Blank lines part the entries; values can stand above or below the molecule they belong to.

Conditions: Liquid

vapor or sublimation pressure (317.55 K): 101 ± 0.86 kPa
Structure (SMILES): CC(C)(C)N [2-methyl-2-propanamine]

vapor or sublimation pressure (425.15 K): 101 ± 0.86 kPa
Structure (SMILES): CN(C)C=O [dimethylformamide]

vapor or sublimation pressure (337.85 K): 101 ± 0.86 kPa
Structure (SMILES): CO [methanol]
